Data as given in patent US6593094B2, “Compositions to enhance the efficacy and safety of bio-pharmaceutical drugs” (priority 1992, dated 2003).

Key:
β2 receptor = β2 receptor (Cavia porcellus, UniProt Q8K4Z4); conditions: calculated from a fit of the isoproterenol control curve
Source text: It is noted that, in the relevant art, there exists a method for calculating drug efficacy by utilization of easily identifiable biophysical parameters. […] Specifically, the experimental data and the calculated values were compared.

mice = conditions: i.v. in mice; cited from earlier work
beta-1-receptors = target: T1, beta-1-receptors (Rattus norvegicus, UniProt P18090); assay: in vivo cardiac response (dP/dt, LVP, HR) in anesthetized rat during infusion; conditions: i.v. infusion at varying rates
T1 construct: from tissue; host or cells: heart of anesthetized rat, in vivo (left ventricular pressure, dP/dt, heart rate)
T1 sequence (P18090 whole entry, the tested form may be a part): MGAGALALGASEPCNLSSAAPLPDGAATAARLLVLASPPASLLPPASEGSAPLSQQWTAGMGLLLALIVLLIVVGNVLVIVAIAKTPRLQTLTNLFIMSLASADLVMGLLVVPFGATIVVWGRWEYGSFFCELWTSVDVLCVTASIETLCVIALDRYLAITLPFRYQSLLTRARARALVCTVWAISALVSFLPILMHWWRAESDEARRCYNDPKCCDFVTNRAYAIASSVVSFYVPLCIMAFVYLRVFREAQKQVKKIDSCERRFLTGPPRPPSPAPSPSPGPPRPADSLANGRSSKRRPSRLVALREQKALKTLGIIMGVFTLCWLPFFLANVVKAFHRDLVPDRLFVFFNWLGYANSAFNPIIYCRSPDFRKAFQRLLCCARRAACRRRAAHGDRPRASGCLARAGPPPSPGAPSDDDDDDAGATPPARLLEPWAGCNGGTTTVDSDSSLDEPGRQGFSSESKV
Description: Following sedation, the neck of the rat was incised and a tracheotomy was performed, inserting a 14-gauge angiocatheter sheath into the trachea of the rat and securing it with a silk tie. The angiocatheter was connected through a small tube to a small animal respirator supplied with 1.0 liters of oxygen per minute and set to 95 breaths per minute.
The right carotid artery was next tied off, and after making a small incision, a Micro-Tip Millar pressure catheter was introduced down through the carotid artery, placing the end of the catheter into the left ventricular cavity of the rat's heart. Position of the catheter tip was determined by the waveform of the pressure reading-placement in the left ventricle was presumed when a diastolic pressure of zero mmHg and a reasonable systolic pressure (70 to 150 mmHg) was observed. […]
At this point for each rat, a baseline recording was obtained of the left ventricular pressure tracing. Segments of three to five seconds were recorded, and it was from these recorded tracings that the included figures of maximum left ventricular pressure (reported as LVP), maximum time-derivative of left ventricular pressure (dP/dT), and heart rate (HR) were later determined, by analysis with Sonometrics CardioSOFT data analysis software. […]
Again, at each rate, LVP was recorded for later analysis. […]

β2 receptor, sequence (Q8K4Z4 whole entry): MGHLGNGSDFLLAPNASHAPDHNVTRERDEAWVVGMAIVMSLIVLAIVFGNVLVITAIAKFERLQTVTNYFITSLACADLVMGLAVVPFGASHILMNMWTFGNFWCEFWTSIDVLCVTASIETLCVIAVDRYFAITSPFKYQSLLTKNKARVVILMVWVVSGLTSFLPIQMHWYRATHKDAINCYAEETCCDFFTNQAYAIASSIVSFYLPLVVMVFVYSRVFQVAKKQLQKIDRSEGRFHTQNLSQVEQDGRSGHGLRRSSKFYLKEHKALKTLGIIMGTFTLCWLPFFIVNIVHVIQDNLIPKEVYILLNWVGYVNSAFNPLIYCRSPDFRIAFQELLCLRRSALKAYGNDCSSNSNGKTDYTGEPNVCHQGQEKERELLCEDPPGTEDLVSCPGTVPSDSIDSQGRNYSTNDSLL

φ=(KDLKDH/2)^−½, value of the maximum of the control curve (β2 receptor) | SMILES | LD50 (mice) | dP/dT response with increasing dosage (beta-1-receptors) | dP/dT response with increasing dosage (beta-1-receptors; listed as Dob)
7.48 µM | CC(C)NCC(O)c1ccc(O)c(O)c1 (stereo not shown) [isoproterenol] | – | – | –
– | CC(CCc1ccc(O)cc1)NCCc1ccc(O)c(O)c1 (stereo not shown) [dobutamine] | 73 mg/kg | at higher dosages the dP/dT again began to decrease (desensitization) | showed a decline in response
